Experimental findings from PubChem BioAssay (NCI) are described below.

The structures appear in SMILES notation. Several values for one entry are separate records, joined by “and”; a condition that tells them apart may be missing. Equal values may be shown once.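 96-well plates; 48 h exposure; 5 concentrations. Endpoints by linear interpolation between flanking doses. Not reached: highest tested concentration assigned. Abbreviation: GI50, concentration required for 50% inhibition of growth. TGI is the concentration that stops growth completely.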 Where only a bound is given, the exact number is not on record here.

Some test systems named below: ACHN renal; K-562 leukemia; MCF7 breast; MDA-N; NCI-H522 lung; OVCAR-4 ovarian; OVCAR-5 ovarian; SK-MEL-28 melanoma; SR leukemia; TK-10 renal; U251 CNS.
Assay in all cases: NCI anticancer screen, dose series, 48 h

In the case of `CC1(C)C(=O)N=C(N)N1C(=O)OCc1ccccc1`, the TGI with ACHN renal, in the experiment on K-562 leukemia, with MCF7 breast, in the experiment with MDA-N, in the experiment with NCI-H522 lung and with OVCAR-4 ovarian was greater than 100 µM throughout. Further, the TGI in the experiment on OVCAR-5 ovarian, in the experiment with SK-MEL-28 melanoma, in the experiment on SR leukemia, in the experiment on TK-10 renal and with U251 CNS was greater than 100 µM throughout.

For `OC1CC(O)c2c(Cl)sc(Cl)c21` (centres undefined), the TGI with ACHN renal was greater than 100 µM; in the experiment on K-562 leukemia, greater than 100 µM; with MCF7 breast it was greater than 100 µM; with MDA-N, greater than 100 µM; with NCI-H522 lung it was 56.8 µM; in the experiment with OVCAR-4 ovarian, greater than 100 µM. In addition, the TGI in the experiment with OVCAR-5 ovarian is greater than 100 µM; in the experiment with SK-MEL-28 melanoma it was greater than 100 µM; with SR leukemia, greater than 100 µM; with TK-10 renal, 82.3 µM; with U251 CNS it was greater than 100 µM.

With `O=c1c2cccnc2nc2ccc3c[nH][nH]c3c12`, the TGI in the experiment on ACHN renal, with K-562 leukemia, in the experiment with MCF7 breast, with MDA-N, with NCI-H522 lung and with OVCAR-4 ovarian was greater than 10 µM in each case. Also, the TGI is greater than 10 µM in the experiment with OVCAR-5 ovarian; greater than 10 µM with SK-MEL-28 melanoma; 9.14 µM with SR leukemia; greater than 10 µM in the experiment on TK-10 renal; greater than 10 µM with U251 CNS.

For `O=C1CC2(CCC(O)(c3ccc(Cl)cc3)C(C(=O)c3ccc(Cl)cc3)C2)C(=O)c2ccccc2N1` (centres undefined), the TGI is 25.4 µM in the experiment with ACHN renal; greater than 100 µM in the experiment with K-562 leukemia; greater than 100 µM with MCF7 breast; 98.1 µM in the experiment with MDA-N; greater than 100 µM with NCI-H522 lung; greater than 100 µM in the experiment with OVCAR-4 ovarian. For the same compound, the TGI in the experiment with OVCAR-5 ovarian is greater than 100 µM; in the experiment with SK-MEL-28 melanoma, 20.6 µM; with SR leukemia, greater than 100 µM; in the experiment on TK-10 renal, 39.2 µM; with U251 CNS, greater than 31.9 µM.

Regarding `C/C=C(/C)C(=O)O[C@H]1C(C)=C[C@]23C(=O)[C@@H](C=C(COC(C)=O)[C@@H](O)[C@]12O)[C@H]1[C@@H](C[C@H]3C)[C@@]1(C)OC(=O)/C(C)=C\C`, the TGI was 4.39 µM in the experiment with ACHN renal; 6.81 µM in the experiment on K-562 leukemia; 6.11 µM in the experiment with MCF7 breast; 6.35 µM with MDA-N; 6.07 µM with NCI-H522 lung; 6.33 µM in the experiment with OVCAR-4 ovarian. The TGI in the experiment on OVCAR-5 ovarian is 6.48 µM; with SK-MEL-28 melanoma, 11.8 µM; in the experiment with SR leukemia it was 10.9 µM; in the experiment on TK-10 renal it was 7.69 µM; in the experiment on U251 CNS, 7.55 µM.

Take `CC(=O)O[C@H]1C(=O)[C@@]2(C)[C@H]([C@H](OC(=O)C3CCCCC3)[C@]3(O)C[C@H](OC(=O)[C@H](O)[C@@H](NC(=O)C4CCCCC4)C4CCCCC4)C(C)=C1C3(C)C)[C@]1(OC(C)=O)CO[C@@H]1C[C@@H]2O`: the TGI in the experiment with ACHN renal is 12.4 µM; in the experiment with K-562 leukemia it was 8.96 µM; with MCF7 breast it was 4.36 µM; in the experiment with MDA-N, 0.00852 µM; in the experiment with NCI-H522 lung, 0.136 µM; in the experiment on OVCAR-4 ovarian, 11.8 µM. The TGI in the experiment with OVCAR-5 ovarian came to 0.121 µM; with SK-MEL-28 melanoma it was 8.55 µM; with SR leukemia it was 9.67 µM; with TK-10 renal, 1.3 µM; with U251 CNS it was 1.66 µM.

For the compound `CCOC(=O)n1cncc1CC(NC(=O)Cc1c(C(=O)C=C(C)C)[nH]c2ccccc12)C(=O)OC` (centres undefined), the TGI with ACHN renal is 36 µM; with K-562 leukemia it was greater than 100 µM; in the experiment with MCF7 breast, 84.1 µM; in the experiment on MDA-N it was 84.3 µM; in the experiment on NCI-H522 lung, 15.2 µM; with OVCAR-4 ovarian it was 37.9 µM. Moreover, the TGI in the experiment on OVCAR-5 ovarian amounted to 35 µM; with SK-MEL-28 melanoma it was 32.8 µM; in the experiment on SR leukemia it was 16.1 µM; in the experiment with TK-10 renal, 34.2 µM; in the experiment on U251 CNS it was 44.9 µM.

As to `COC1OC(CO)C(O)C(OC(=O)c2cc(O)c(O)c(O)c2)C1OC(=O)c1cc(O)c(O)c(O)c1` (centres undefined), the TGI was greater than 100 µM in the experiment on ACHN renal; greater than 100 µM in the experiment with K-562 leukemia; greater than 100 µM in the experiment with MCF7 breast; 55.7 µM with MDA-N; greater than 100 µM in the experiment with NCI-H522 lung; 90.4 µM in the experiment on OVCAR-4 ovarian. Also, the TGI in the experiment with OVCAR-5 ovarian, with SK-MEL-28 melanoma, in the experiment on SR leukemia, in the experiment with TK-10 renal and in the experiment with U251 CNS was greater than 100 µM in each case.

`Cn1c2nc3ccccc3c-2cc2ccccc21`: the GI50 in the experiment on ACHN renal is 2.06 µM and 4.8 µM; with MDA-N, 4.27 µM and 10.4 µM; with NCI-H522 lung, 2.07 µM and 6.03 µM; in the experiment on OVCAR-4 ovarian, 3.81 µM and 10.7 µM; in the experiment with OVCAR-5 ovarian, 4.12 µM and 11.4 µM; with SK-MEL-28 melanoma, 4.87 µM and 10.8 µM. The GI50 with TK-10 renal is 7.63 µM and 31 µM; in the experiment on U251 CNS, 4.17 µM and 8.75 µM. In addition, the TGI is 15.2 µM and > 100 µM in the experiment on ACHN renal; > 100 µM and 39.7 µM in the experiment on K-562 leukemia; > 34.8 µM and 36.9 µM in the experiment on MCF7 breast; 30.1 µM and 23.1 µM in the experiment with MDA-N; 10.3 µM and 23.7 µM in the experiment with NCI-H522 lung; 19 µM and 26.2 µM in the experiment on OVCAR-4 ovarian. The TGI in the experiment with OVCAR-5 ovarian is 36.9 µM and 40.9 µM; in the experiment on SK-MEL-28 melanoma, > 43.2 µM and 23.1 µM; with SR leukemia, 7.25 µM and 10.7 µM; with TK-10 renal, 70.3 µM and > 100 µM; in the experiment with U251 CNS, > 53.5 µM and 32.4 µM.

On to `O=[N+]([O-])C(=C(N1CCOCC1)N1CCOCC1)/C(Cl)=C(\Cl)[N+](=O)[O-]`, for which the TGI with ACHN renal was 14.6 µM; in the experiment on K-562 leukemia it was greater than 100 µM; in the experiment on MCF7 breast, 7.73 µM; in the experiment on MDA-N, 25.1 µM; in the experiment with NCI-H522 lung, 2.89 µM; in the experiment with OVCAR-4 ovarian, 30.7 µM. Further, the TGI in the experiment on OVCAR-5 ovarian is 31.4 µM; with SK-MEL-28 melanoma, 28.9 µM; in the experiment with SR leukemia, greater than 100 µM; in the experiment with TK-10 renal, 3.89 µM; with U251 CNS, 37.8 µM.

For the compound `O=C(Nc1nc(C23CC4CC(CC(C4)C2)C3)cs1)c1cc2cc(Br)cc(Br)c2oc1=O`, the TGI in the experiment with ACHN renal, with K-562 leukemia, in the experiment with MCF7 breast, in the experiment with MDA-N, in the experiment with NCI-H522 lung and in the experiment with OVCAR-4 ovarian was greater than 100 µM throughout. Also, the TGI was greater than 100 µM in the experiment on OVCAR-5 ovarian; greater than 100 µM in the experiment with SK-MEL-28 melanoma; greater than 100 µM in the experiment on SR leukemia; greater than 100 µM with TK-10 renal; 41.5 µM in the experiment on U251 CNS.
